The test system of series [1] is PANC-1. In words: Antiproliferative activity against human PANC-1 cells assessed as inhibition of cell growth measured after 48 hrs by MTT assay. The settings on record: panc-1. The format is functional, cell-based. (Formazan colour is commonly taken as a measure of viable cells.)
Series [2] deals with NCI-H460. In words: Antiproliferative activity against human NCI-H460 cells assessed as inhibition of cell growth measured after 48 hrs by MTT assay. The format is functional, cell-based. The note with it: nci-h460.
Series [3] concerns NCI-H1299. In words: Antiproliferative activity against human NCI-H1299 cells assessed as inhibition of cell growth measured after 48 hrs by MTT assay. The series is classed as functional, cell-based. The settings on record: nci-h1299.
The subject of series [4] is NIH3T3. In words: Antiproliferative activity against mouse NIH3T3 cells assessed as inhibition of cell growth measured after 48 hrs by MTT assay. The note with it: nih3t3. The series is classed as toxicity, cell-based.
Series [5] relates to HUVEC. In words: Antiproliferative activity against human HUVEC cells assessed as inhibition of cell growth measured after 48 hrs by MTT assay. The series is classed as toxicity, cell-based. The note with it: huvec.
For series [6], the system named is A549. Kind of series: Induction of cell cycle arrest in human A549 cells assessed as accumulation of cells at G0/G1 phase at 0.1 uM incubated for 48 hrs by PI staining based flow cytometry analysis (reference value: 63.26%). The format is functional. Background: A flow cytometer gives signals particle by particle.
The test system of series [7] is A549. In words: Inhibition of colony formation in human A549 cells assessed as suppression of colony formation at 5 nM replaced with fresh medium for every 72 hrs and measured for 15 days by crystal violet staining based assay relative to control. The series is classed as functional. The settings on record: A549, 360 h, time 15 day.
Series [8] concerns A549. In words: Antiproliferative activity against human A549 cells assessed as inhibition of cell growth measured after 48 hrs in presence of scramble siRNA by MTT assay. The format is functional, cell-based. The settings on record: A549, 48 h.
A short description of series [9]: Toxicity in BALB/c nude mouse assessed as effect on body weight at 2 mg/kg, sc administered every 2 days for 14 days. The settings on record: in vivo, 336 h, time 14 day. The format is organism-based.
The nature of series [10]: Toxicity in BALB/c nude mouse assessed as body weight loss at 4 mg/kg, sc administered every 2 days for 14 days. The series is classed as organism-based. The settings on record: in vivo, 336 h, time 14 day.
The nature of series [11]: Drug metabolism in BALB/C nude mouse kidney xenografted with human A549 cells at 2 mg/kg measured after 2 to 6 hrs by UPLC-3Q analysis. The format is ADME, organism-based. The settings on record: in vivo, time 2-6 hrs.
The nature of series [12]: Toxicity in BALB/c mouse assessed as morphological changes in kidney at 2 to 4 mg/kg by H and E staining based analysis. The settings on record: in vivo, dose 2-4 mg/kg. The series is classed as organism-based.
Series [13] deals with A549. Kind of series: Induction of apoptosis in human A549 cells assessed as viable cells at 0.1 uM measured after 48 hrs by annexin V and PI staining based flow cytometry analysis (reference value: 93.3%). The series is classed as functional. The settings on record: Homo sapiens, A549, 48 h, read-out: Activity.
For series [14], the system named is A549. In words: Induction of apoptosis in human A549 cells assessed as viable cells at 0.25 uM measured after 48 hrs by annexin V and PI staining based flow cytometry analysis (reference value: 93.3%). The series is classed as functional. The note with it: Homo sapiens, A549, 48 h, read-out: Activity.
The subject of series [15] is A549. In words: Induction of apoptosis in human A549 cells assessed as early apoptotic cells at 0.04 uM measured after 48 hrs by annexin V and PI staining based flow cytometry analysis (reference value: 0.71%). The series is classed as functional.
For series [16], the system named is A549. In words: Induction of apoptosis in human A549 cells assessed as late apoptotic cells at 0.04 uM measured after 48 hrs by annexin V and PI staining based flow cytometry analysis (reference value: 4.70%). The format is functional.
The subject of series [17] is A549. Kind of series: Induction of apoptosis in human A549 cells assessed as late apoptotic cells at 0.1 uM measured after 48 hrs by annexin V and PI staining based flow cytometry analysis (reference value: 4.70%). The format is functional.

One may read the IC50 as the concentration that inhibits the measured activity by half. Usually inhibition stands for the drop in the measured response relative to a control, in per cent.

Consider `Cn1c[n+](C)c2c1C(=O)c1cc3ccccc3cc1C2=O.[I-]`, for which the IC50 in series [1] was found to be 80 nM; in series [2] it was 140 nM; in series [3], 510 nM; in series [4] it was 14000 nM; in [5], 6660 nM; in series [8], 9 nM. The Activity in [6] is on record as 85.37%; in series [9], “Non-Toxic”; in series [10], “Non-Toxic”; in [12], “Non-Toxic”; in series [15], 6.08%; in series [16], 61.4%. In addition, the Activity in series [17] was 81.9%. Moreover, the inhibition at 0.005 µM in series [7] was determined as 100%. Besides, in [11], the Drug metabolism result is “Metabolite_Detected”. Besides, the viability at 0.1 µM in series [13] worked out at 8.7%. Besides, in series [14], the viability at 0.25 µM amounted to 3.28%.

For the origin of these results see ChEMBL document CHEMBL5375989, “Pioneering 4,11-Dioxo-4,11-dihydro-1H-anthra[2,3-d]imidazol-3-ium Compounds as Promising Survivin Inhibitors by Targeting ILF3/NF110 for Cancer Therapy” (J Med Chem, 2023).
